According to patent US5045566A, “Novel imidate insecticides” (ICI Americas Inc., priority 1989, dated 1991):

Key:
Format in all cases: in vivo
[1] = test system: Cabbage Looper [Trichoplusia ni (Hubner)]; assay: Cabbage looper leaf dip (CL), 3-5 days; details: percent in solution, second-instar larvae
How it was run: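 Squash cotyledons dipped in test solution (acetone-water 50-50, ≤0.1%), dried, offered to 5 second-instar larvae; mortality after 3-5 days gives LC50.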

[2] = test system: Maize weevil [Sitophilus zeamais (Motschulsky)]; assay: Maize weevil on dipped corn seeds (MW), 48 hours; details: percent in solution, adult weevils
How it was run: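 LC50, given as percent of compound in dipping solution, comes from dosage-mortality curves over concentrations descending from 0.01%. Four corn seeds soaked 2-3 s in 50:50 acetone:water solution were dried and held with 10 adult weevils, about 25° C, mortality read after 48 h.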

[3] = test system: Tobacco Budworm [Heliothis virescens (Fabricius)] eggs; assay: Tobacco budworm eggs (TBW-E); details: percent in solution; 2-day old eggs
How it was run: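 Step 1: dip 2-day old egg patches in acetone test solutions (top concentration 0.1%). Step 2: hold in dishes with rearing medium at 78° F. Step 3: record mortality after control hatch and feeding.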

[4] = test system: Housefly [Musca domestica]; assay: Housefly contact mortality in dishes (HF), 48 hours; details: μg of test compound per 25 female flies
How it was run: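 Dose range started at 100 μg per 25 female flies and went downward. Insects (1-2 days old) contacted a dried acetone/peanut-oil deposit in dishes; LC50 values come from dosage-mortality curves at 48 h.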

[5] = test system: Black Bean Aphid [Aphis fabae (Scop.)]; assay: Black bean aphid spray test on nasturtium (BBA), 48 hours; details: percent of test compound in sprayed solution
How it was run: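 LC50, given as percent test compound in the sprayed liquid, was calculated from dosage-mortality curves using concentrations from 0.05% downward. Sprays in 50:50 acetone-water went to runoff on ~5 cm nasturtiums carrying 25-50 aphids of mixed ages, one day after infestation. Deaths were counted 48 h later under greenhouse conditions.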

C=C(C)C(=Nc1ccc(F)c(Cl)c1)OCc1ccc(F)c(Oc2ccc(Cl)cc2)c1 [Compound 415]
LC50 CL [1]: 0.00075% | LC50 MW [2]: > 0.01% | LC50 TBW E (eggs) [3]: 0.035% | LC50 HF [4]: < 100 µg | LC50 BBA [5]: 0.0007%

C=C(C)C(=Nc1ccc(F)c(Cl)c1)OCc1ccc(F)c(Oc2ccccc2)c1 [Compound 416]
LC50 CL [1]: 0.00027% | LC50 MW [2]: > 0.01% | LC50 TBW E (eggs) [3]: 0.018% | LC50 HF [4]: < 100 µg | LC50 BBA [5]: 0.0035%

C=C(C)C(=Nc1ccc(F)c(Cl)c1)OCc1cccc(Oc2ccccc2)c1 [Compound 417]
LC50 CL [1]: 0.0008% | LC50 MW [2]: > 0.01% | LC50 TBW E (eggs) [3]: 0.04% | LC50 HF [4]: < 100 µg | LC50 BBA [5]: 0.004%

CC(C)C(=Nc1ccc(OCC(F)(F)F)c(Cl)c1)OCc1cccc(Oc2ccc(F)cc2)c1 [Compound 420]
LC50 CL [1]: 0.00075% | LC50 MW [2]: > 0.01% | LC50 TBW E (eggs) [3]: 0.05% | LC50 HF [4]: > 100 µg | LC50 BBA [5]: 0.004%

CC(C)C(=Nc1ccc(OCC(F)(F)F)c(Cl)c1)OCc1cccc(Oc2ccc(Cl)cc2)c1 [Compound 421]
LC50 CL [1]: 0.002% | LC50 MW [2]: > 0.01% | LC50 TBW E (eggs) [3]: < 0.1% | LC50 HF [4]: > 100 µg | LC50 BBA [5]: > 0.05%

CC(C)C(=Nc1ccc(OCC(F)(F)F)cc1)OCc1ccc(F)c(Oc2ccccc2)c1 [Compound 422]
LC50 CL [1]: 0.00075% | LC50 MW [2]: > 0.01% | LC50 TBW E (eggs) [3]: 0.05% | LC50 HF [4]: < 100 µg | LC50 BBA [5]: > 0.05%

CC(C)C(=Nc1ccc(OCC(F)(F)F)cc1)OCc1cccc(Oc2ccccc2)c1 [Compound 423]
LC50 CL [1]: 0.002% | LC50 MW [2]: > 0.01% | LC50 TBW E (eggs) [3]: > 0.1% | LC50 HF [4]: > 100 µg | LC50 BBA [5]: > 0.05%

CC(C)C(=Nc1ccc(OCC(F)(F)F)c(Cl)c1)OCc1ccc(F)c(Oc2ccccc2)c1 [Compound 424]
LC50 CL [1]: 0.00038% | LC50 MW [2]: > 0.01% | LC50 TBW E (eggs) [3]: 0.035% | LC50 HF [4]: > 100 µg | LC50 BBA [5]: 0.002%

CC(C)C(=Nc1ccc(OCC(F)(F)F)c(Cl)c1)OCc1cccc(Oc2ccccc2)c1 [Compound 425]
LC50 CL [1]: 0.00075% | LC50 MW [2]: > 0.01% | LC50 TBW E (eggs) [3]: > 0.1% | LC50 HF [4]: > 100 µg | LC50 BBA [5]: 0.0035%

CCOc1cccc(N=C(OCc2ccc(F)c(Oc3ccc(F)cc3)c2)C(C)C)c1 [Compound 426]
LC50 CL [1]: 0.002% | LC50 MW [2]: > 0.01% | LC50 TBW E (eggs) [3]: > 0.1% | LC50 HF [4]: > 100 µg | LC50 BBA [5]: 0.0012%

CC(C)C(=Nc1ccc(C(F)(F)F)cc1Cl)OCc1cccc(Oc2ccc(F)cc2)c1 [Compound 427]
LC50 CL [1]: < 0.1% | LC50 MW [2]: > 0.01% | LC50 TBW E (eggs) [3]: > 0.1% | LC50 HF [4]: > 100 µg | LC50 BBA [5]: 0.05%

CC(C)C(=Nc1ccc(C(F)(F)F)cc1Cl)OCc1ccc(F)c(Oc2ccccc2)c1 [Compound 428]
LC50 CL [1]: 0.0017% | LC50 MW [2]: > 0.01% | LC50 TBW E (eggs) [3]: > 0.1% | LC50 HF [4]: > 100 µg | LC50 BBA [5]: 0.003%

CC(C)C(=Nc1ccc(OCC(F)(F)F)c(F)c1)OCc1cccc(Oc2ccc(Cl)cc2)c1 [Compound 429]
LC50 CL [1]: 0.0017% | LC50 MW [2]: > 0.01% | LC50 TBW E (eggs) [3]: < 0.1% | LC50 HF [4]: > 100 µg | LC50 BBA [5]: 0.005%

C=C(C)C(=Nc1ccc(C(F)(F)F)cc1)OCc1cccc(Oc2ccccc2)c1 [Compound 430]
LC50 CL [1]: 0.001% | LC50 MW [2]: 0.004% | LC50 TBW E (eggs) [3]: 0.032% | LC50 HF [4]: < 100 µg | LC50 BBA [5]: 0.0006%

CC(C)C(=Nc1ccc(C(F)(F)F)c(Br)c1)OCc1ccc(F)c(Oc2ccccc2)c1 [Compound 434]
LC50 CL [1]: 0.0017% | LC50 MW [2]: 0.009% | LC50 TBW E (eggs) [3]: > 0.1% | LC50 HF [4]: < 100 µg | LC50 BBA [5]: 0.003%

COc1ccc(N=C(OCc2ccc(F)c(Oc3ccccc3)c2)C(C)C)cc1F [Compound 435]
LC50 CL [1]: 0.002% | LC50 MW [2]: > 0.01% | LC50 TBW E (eggs) [3]: 0.04% | LC50 HF [4]: < 100 µg | LC50 BBA [5]: 0.001%

CC(C)C(=Nc1cccc(OC(F)(F)F)c1)OCc1ccc(F)c(Oc2ccccc2)c1 [Compound 437]
LC50 CL [1]: 0.00075% | LC50 MW [2]: > 0.01% | LC50 TBW E (eggs) [3]: 0.025% | LC50 HF [4]: < 100 µg | LC50 BBA [5]: 0.0003%

CCc1ccc(N=C(OCc2cccc(Oc3ccc(F)cc3)c2)C(C)C)cc1Cl [Compound 438]
LC50 CL [1]: 0.0009% | LC50 MW [2]: > 0.01% | LC50 TBW E (eggs) [3]: < 0.1% | LC50 HF [4]: > 100 µg | LC50 BBA [5]: 0.0003%

CCOc1ccc(N=C(OCc2ccc(F)c(Oc3ccccc3)c2)C(C)C)cc1F [Compound 439]
LC50 CL [1]: 0.00045% | LC50 MW [2]: > 0.01% | LC50 TBW E (eggs) [3]: > 0.1% | LC50 HF [4]: > 100 µg | LC50 BBA [5]: 0.0003%

CCCc1ccc(N=C(OCc2ccc(F)c(Oc3ccc(F)cc3)c2)C(C)C)cc1 [Compound 440]
LC50 CL [1]: 0.002% | LC50 MW [2]: > 0.01% | LC50 TBW E (eggs) [3]: < 0.1% | LC50 HF [4]: > 100 µg | LC50 BBA [5]: 0.0003%

CC(C)C(=Nc1ccc(Cl)c(F)c1)OCc1ccc(F)c(Oc2ccc(F)cc2)c1 [Compound 441]
LC50 CL [1]: 0.000025% | LC50 MW [2]: 0.006% | LC50 TBW E (eggs) [3]: 0.016% | LC50 HF [4]: < 100 µg | LC50 BBA [5]: 0.0003%

C=C(C)C(=Nc1ccc(C(F)(F)F)cc1)OCc1cccc(Oc2ccc(F)cc2)c1 [Compound 442]
LC50 CL [1]: 0.0007% | LC50 MW [2]: > 0.01% | LC50 TBW E (eggs) [3]: 0.035% | LC50 HF [4]: < 100 µg | LC50 BBA [5]: 0.001%

CC(C)C(=Nc1ccc(C(F)(F)F)cc1[N+](=O)[O-])OCc1ccc(F)c(Oc2ccccc2)c1 [Compound 445]
LC50 CL [1]: 0.00045% | LC50 MW [2]: > 0.01% | LC50 TBW E (eggs) [3]: > 0.1% | LC50 HF [4]: < 100 µg | LC50 BBA [5]: 0.001%

CCOc1ccc(N=C(OCc2cccc(Oc3ccc(F)cc3)c2)C(C)C)cc1Br [Compound 446]
LC50 CL [1]: 0.0008% | LC50 MW [2]: > 0.01% | LC50 TBW E (eggs) [3]: < 0.1% | LC50 HF [4]: > 100 µg | LC50 BBA [5]: 0.001%

CC(C)C(=Nc1cccc(C(F)(F)F)c1)OC(C)c1cccc(Oc2ccccc2)c1 (stereo not drawn) [Compound 459]
LC50 CL [1]: 0.008% | LC50 MW [2]: > 0.01% | LC50 TBW E (eggs) [3]: 0.1% | LC50 HF [4]: > 100 µg | LC50 BBA [5]: > 0.05%

CC(C)C(=Nc1ccc(F)c(Cl)c1)OCc1cccc(Oc2c(F)c(F)c(F)c(F)c2F)c1 [Compound 460]
LC50 CL [1]: 0.02% | LC50 MW [2]: > 0.01% | LC50 TBW E (eggs) [3]: > 0.1% | LC50 HF [4]: > 100 µg | LC50 BBA [5]: > 0.05%

CC(C)C(=Nc1ccc(I)c(Cl)c1)OCc1cccc(Oc2ccc(Cl)cc2)n1 [Compound 471]
LC50 CL [1]: 0.00018% | LC50 MW [2]: > 0.01% | LC50 TBW E (eggs) [3]: 0.018% | LC50 HF [4]: < 100 µg | LC50 BBA [5]: 0.001%
